From patent USRE29675E, “O-(Halophenylcarbamyl)-N-(halophenyl) glycolamides” (Stauffer Chemical Company, priority 1977, dated 1978)
Converted amounts (≈) assume the structure as drawn.

Experiments:
Assay type in all cases: cell-based
Aspergillus oryzae = assay: In Vitro Agar Screening Test, fungi; conditions: potato dextrose agar, 30° C., read-out: Minimum Inhibitory Concentration
Protocol: (§1) This test measures the bactericidal, fungicidal and algaecidal properties of a compound when in contact with growing bacteria, fungi or algae in an artifical medium. The test is conducted by adding 20 ml. portions of a suitable warm sterile agar solution into 20 × 100 mm. Petri dishes. Then, the test compound, in 0.5 percent acetone solution, is added to the Petri dishes at levels of 1, 10 and 50 μg/ml. and mixed with the warm mobile agar solution. The treated agar mixture is then allowed to come to room temperature and solidify. Cells of the chosen organism are streaked on the surface of the solidified agar and are then incubated for such lengths of time that untreated samples containing no toxicant show luxurious growth typical of the particular organism. This time varies from 24 hours to one week depending on the particular organism. The fungi are incubated at 30° C. and the bacteria are incubated at 37° C. The algae are incubated at room temperature under artificial light. Nutrient agar is used as the medium in this test for the bacteria. Potato dextrose agar is used as the medium for the fungi with the exception of Trichophyton mentagrophytes for which Emmons agar is used. A modified Jack Meyers agar is used for the growth of the algae.
(§2) The extent of growth is noted at the end of the incubation period.
(§3) Representative organisms used in this test are as follows: […]

stapylococcus aureus = assay: In Vitro Vial Test (bactericidal, nutrient broth); conditions: 168 h, sealed vial incubated one week, read-out: Concentration (PPM) Which Inhibited Growth
Protocol: The following test illustrates utility of the compounds in controlling bacteria. This test measures the bactericidal properties of a compound when in contact with a growing bacterium. The test is conducted by partially filling a 1-ounce vial with nutrient broth. Next the test compound is added to the vial at a certain concentration, expressed in parts per million, and mixed with the broth. A water suspension of cells of stapylococcus aureus is added. The vial is then sealed and incubated for one week.

Bacillus cereus = assay: In Vitro Agar Screening Test, bacteria; conditions: nutrient agar, 37° C., indicates partial control at this concentration, read-out: Minimum Inhibitory Concentration
Protocol: as §1, §2, §3

Staphylococcus aureus = assay: In Vitro Agar Screening Test, bacteria; conditions: Stapylococcus aureus, nutrient agar, 37° C., read-out: Minimum Inhibitory Concentration
Protocol: as §1, §2, §3

[1] = tested on: Desulfovibrio desulfuricans; assay: Sulfate Reducing Bacteria In Vitro Test; conditions: Sulfate API broth with tryptone, anaerobic, room temperature, 3 to 5 days, unit from method text, read-out: minimum inhibitory concentration necessary to control the organism
Protocol: This test measures the bactericidal properties of a compound when in contact with a sulfate reducing bacteria, specifically Desulfovibrio desulfuricans. The test is conducted by dissolving the test compound in acetone to give an 0.5 percent solution. This toxicant is added to vials containing sterile Sulfate API broth with tryptone under anaerobic conditions at such levels to give final toxicant concentrations of 1, 5, 10 and 50 μg/ml. of solution. An inoculant solution of 0.5 ml of the growing organism, Desulfovibrio desulfuricans, is added to the vials followed by sufficient sterile distilled water to give a total of 10 ml. of solution in the vials. […] The following is a summary of the minimum inhibitory concentration necessary to control the organism.

[2] = tested on: Brevibacterium ammoniagenes; assay: In Vitro Agar Screening Test, bacteria; conditions: Corynebacterium ammoniagenes, nutrient agar, 37° C., read-out: Minimum Inhibitory Concentration
Protocol: as §1, §2, §3

[3] = tested on: Trichophyton mentagrophytes; assay: In Vitro Agar Screening Test, fungi; conditions: Emmons agar, 30° C., indicates partial control at this concentration, read-out: Minimum Inhibitory Concentration
Protocol: as §1, §2, §3

Scenedesmus obliquus = assay: In Vitro Agar Screening Test, algae; conditions: Tetradesmus obliquus, modified Jack Meyers agar, room temperature, artificial light, indicates partial control at this concentration, read-out: Minimum Inhibitory Concentration
Protocol: as §1, §2, §3

Enterobacter aerogenes = assay: In Vitro Agar Screening Test, bacteria; conditions: Klebsiella aerogenes, nutrient agar, 37° C., indicates partial control at this concentration, read-out: Minimum Inhibitory Concentration
Protocol: as §1, §2, §3

| SMILES | MIC (Aspergillus oryzae) [µg/mL] | MIC (stapylococcus aureus) [µg/mL] | MIC (Staphylococcus aureus) [µg/mL] | MIC [1] [µg/mL] | MIC [2] [µg/mL] | other results |
| --- | --- | --- | --- | --- | --- | --- |
| O=C(COC(=O)Nc1cccc(Cl)c1)Nc1ccc(Cl)c(Cl)c1 [Compound 2, O-(3-Chlorophenylcarbamyl)-N-(3,4-dichlorophenyl)-glycolamide] | > 50 | 0.25 (≈ 0.669 µM) | 1 (≈ 2.68 µM) | 10 (≈ 26.8 µM) | 5 (≈ 13.4 µM) | MIC (Bacillus cereus): 1 µg/mL (≈ 2.68 µM) |
| O=C(COC(=O)Nc1ccc(Cl)c(Cl)c1)Nc1ccc(Cl)cc1 [Compound 4] | – | 1 (≈ 2.68 µM) | – | – | – | – |
| O=C(COC(=O)Nc1cccc(Cl)c1)Nc1ccc(Cl)cc1 [Compound 3] | – | 5 (≈ 14.7 µM) | – | – | – | – |
| O=C(COC(=O)Nc1ccc(Cl)c(Cl)c1)Nc1ccc(Cl)c(Cl)c1 [Compound 5] | – | 1 (≈ 2.45 µM) | – | – | – | – |
| O=C(COC(=O)Nc1cccc(Br)c1)Nc1ccc(Cl)c(Cl)c1 [Compound 6] | – | 0.5 (≈ 1.2 µM) | – | – | – | – |
| O=C(COC(=O)Nc1ccc(Cl)cc1)Nc1ccc(Cl)c(Cl)c1 [Compound 1] | 5 (≈ 13.4 µM) | 0.25 (≈ 0.669 µM) | 1 (≈ 2.68 µM) | 50 (≈ 134 µM) | 5 (≈ 13.4 µM) | MIC [3]: 5 µg/mL (≈ 13.4 µM); MIC (Scenedesmus obliquus): 1 µg/mL (≈ 2.68 µM); MIC (Enterobacter aerogenes): 1 µg/mL (≈ 2.68 µM) |
